Test results published in PMC12206033, “Selective inhibition of TRPV3 channel by natural rosmarinic acid and its analogs for alleviation of skin lesions through downregulation of NF-κB pathway” (The Journal of Biological Chemistry, 2025).

Tests used:
Format in all cases: cell-based
hTRPV4 = target: T1, hTRPV4 (Homo sapiens, UniProt Q9HBA0); assay: whole-cell patch-clamp of hTRPV4 currents activated by GSK101; settings: ROSA 50 μM; agonist GSK101 100 nM; read-out: inhibition of TRPV4 currents
T1 construct: expressed in transfected cells; host or cells: HEK293T
T1 sequence (Q9HBA0 whole entry): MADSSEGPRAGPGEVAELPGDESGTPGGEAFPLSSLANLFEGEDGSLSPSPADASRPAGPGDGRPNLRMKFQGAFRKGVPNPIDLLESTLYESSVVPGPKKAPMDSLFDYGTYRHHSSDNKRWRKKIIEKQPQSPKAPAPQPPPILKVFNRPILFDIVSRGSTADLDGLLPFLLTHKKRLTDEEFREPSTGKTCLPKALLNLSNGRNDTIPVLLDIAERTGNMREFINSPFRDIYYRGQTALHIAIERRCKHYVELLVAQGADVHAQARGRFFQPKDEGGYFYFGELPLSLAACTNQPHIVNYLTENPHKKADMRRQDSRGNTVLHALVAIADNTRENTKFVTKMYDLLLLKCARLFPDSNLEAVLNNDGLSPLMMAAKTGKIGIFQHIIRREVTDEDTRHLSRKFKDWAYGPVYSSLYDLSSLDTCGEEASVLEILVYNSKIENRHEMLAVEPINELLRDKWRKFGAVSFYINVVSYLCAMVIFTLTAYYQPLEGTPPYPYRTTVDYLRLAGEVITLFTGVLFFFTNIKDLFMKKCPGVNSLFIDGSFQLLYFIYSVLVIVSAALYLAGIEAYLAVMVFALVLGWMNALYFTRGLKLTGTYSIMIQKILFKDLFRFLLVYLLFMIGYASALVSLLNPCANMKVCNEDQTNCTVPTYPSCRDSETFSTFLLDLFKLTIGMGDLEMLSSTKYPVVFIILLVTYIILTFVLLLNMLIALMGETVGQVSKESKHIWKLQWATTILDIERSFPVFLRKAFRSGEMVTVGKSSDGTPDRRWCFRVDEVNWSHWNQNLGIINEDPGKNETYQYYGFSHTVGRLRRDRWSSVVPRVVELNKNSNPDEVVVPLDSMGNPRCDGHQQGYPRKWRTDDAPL
Procedure: (§1) HEK293T cell line was obtained from the Cell Resource Center, Peking Union Medical College. HEK293T cells were maintained in Dulbecco’s modified Eagle’s medium (DMEM, Gibco) supplemented with 10% fetal bovine serum at 37 °C with 5% CO2. […] The next day, determine the plasmid transfection status by observing green fluorescence based on expression of enhanced GFP as an indicator. […] When conducting experiments on HEK293T cells transfected with G573S point mutant TRPV3 plasmid, we replaced culture medium with or without compounds after 4 h of transfection and then observed green fluorescence of HEK293T cell after 10 h. As for the relative fluorescence intensity, we convert the image to 8 bit grayscale using ImageJ (Https://imagej.net/software/fiji/downloads) and set an appropriate threshold value to reduce background noise and enhance the image contrast.
(§2) All patch-clamp recordings were conducted 16 to 24 h after transfection using an EPC10 amplifier powered by PatchMaster software (HEKA) (https://www.heka.com/downloads/downloads_main.html#down_patchmaster) at room temperature. […] Currents were recorded at a potential ramp from −100 mV to +100 mV for 1000 ms with 1000-ms intervals (for whole-cell recordings) or a persistent potential of −60 mV (inside-out patch recordings). […]

hTRPM8 = target: T2, hTRPM8 (Homo sapiens, UniProt Q7Z2W7); assay: whole-cell patch-clamp of hTRPM8 currents activated by menthol; settings: ROSA 50 μM; agonist menthol 30 μM (legend: 500 μM)
T2 construct: expressed in transfected cells; host or cells: HEK293T
T2 sequence (Q7Z2W7 whole entry): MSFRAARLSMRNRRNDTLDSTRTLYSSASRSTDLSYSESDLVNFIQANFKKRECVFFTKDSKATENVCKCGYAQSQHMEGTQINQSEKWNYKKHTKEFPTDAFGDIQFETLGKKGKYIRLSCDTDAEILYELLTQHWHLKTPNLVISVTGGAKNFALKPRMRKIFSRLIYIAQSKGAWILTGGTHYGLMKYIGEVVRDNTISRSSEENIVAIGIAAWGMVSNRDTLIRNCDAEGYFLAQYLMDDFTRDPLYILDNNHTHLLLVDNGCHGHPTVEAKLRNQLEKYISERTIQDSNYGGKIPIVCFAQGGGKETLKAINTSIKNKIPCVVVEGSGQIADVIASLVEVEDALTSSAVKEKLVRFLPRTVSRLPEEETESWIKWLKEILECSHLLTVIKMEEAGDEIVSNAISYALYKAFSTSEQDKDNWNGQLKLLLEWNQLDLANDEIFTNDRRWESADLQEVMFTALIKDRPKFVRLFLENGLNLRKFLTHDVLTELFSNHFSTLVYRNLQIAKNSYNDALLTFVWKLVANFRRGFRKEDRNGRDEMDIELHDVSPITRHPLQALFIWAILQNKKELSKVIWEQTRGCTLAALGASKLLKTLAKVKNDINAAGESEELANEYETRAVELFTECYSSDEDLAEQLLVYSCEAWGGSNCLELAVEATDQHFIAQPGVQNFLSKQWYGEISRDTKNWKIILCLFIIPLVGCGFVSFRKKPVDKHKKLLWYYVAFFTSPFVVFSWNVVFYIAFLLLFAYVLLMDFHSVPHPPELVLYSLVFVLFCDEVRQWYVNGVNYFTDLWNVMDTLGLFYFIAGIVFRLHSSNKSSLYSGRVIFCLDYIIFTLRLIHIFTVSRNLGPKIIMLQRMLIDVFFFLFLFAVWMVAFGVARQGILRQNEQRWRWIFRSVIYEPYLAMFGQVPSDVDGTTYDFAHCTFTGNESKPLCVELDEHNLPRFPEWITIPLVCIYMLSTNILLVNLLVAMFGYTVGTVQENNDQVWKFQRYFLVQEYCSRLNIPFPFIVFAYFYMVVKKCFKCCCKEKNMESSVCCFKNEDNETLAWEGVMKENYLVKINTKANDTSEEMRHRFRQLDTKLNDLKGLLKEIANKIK
Procedure: as §1, §2

TRPV3 T636A [1] = target: T3, TRPV3 T636A (Homo sapiens, UniProt Q8NET8, T636A); assay: whole-cell patch-clamp of hTRPV3 T636A mutant currents; settings: ROSA 100 μM; 2-APB; read-out: inhibition of macroscopic hTRPV3 T636A currents
T3 construct: expressed in transfected cells; host or cells: HEK293T
T3 sequence (Q8NET8 1-790 T636A): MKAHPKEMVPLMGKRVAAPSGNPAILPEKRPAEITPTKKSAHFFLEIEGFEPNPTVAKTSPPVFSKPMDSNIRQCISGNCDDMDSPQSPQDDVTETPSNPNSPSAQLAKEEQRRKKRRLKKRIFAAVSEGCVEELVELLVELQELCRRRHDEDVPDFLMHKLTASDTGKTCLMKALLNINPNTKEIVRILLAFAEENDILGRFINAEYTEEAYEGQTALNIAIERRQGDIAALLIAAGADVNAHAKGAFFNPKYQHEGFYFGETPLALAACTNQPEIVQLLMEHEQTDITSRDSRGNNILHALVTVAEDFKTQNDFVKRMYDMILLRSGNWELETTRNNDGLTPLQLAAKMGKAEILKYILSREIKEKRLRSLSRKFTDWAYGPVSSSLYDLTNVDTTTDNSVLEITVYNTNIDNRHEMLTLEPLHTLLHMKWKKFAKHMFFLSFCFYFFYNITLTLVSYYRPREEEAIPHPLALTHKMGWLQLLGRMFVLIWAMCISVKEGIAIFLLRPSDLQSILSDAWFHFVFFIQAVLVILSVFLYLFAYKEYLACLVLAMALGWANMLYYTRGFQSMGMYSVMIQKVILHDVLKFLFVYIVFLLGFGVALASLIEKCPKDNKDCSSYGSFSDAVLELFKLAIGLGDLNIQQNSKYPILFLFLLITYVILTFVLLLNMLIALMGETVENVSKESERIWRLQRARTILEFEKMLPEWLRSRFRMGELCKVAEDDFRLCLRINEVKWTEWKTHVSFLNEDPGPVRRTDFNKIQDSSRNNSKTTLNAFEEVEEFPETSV
Procedure: as §1, §2

TRPV3 T636A [2] = target: T3, TRPV3 T636A; assay: single-channel inside-out patch recordings of TRPV3 T636A mutant; settings: ROSA 100 μM co-applied with 2-APB 50 μM; n = 4
Procedure: as §1, §2

[3] = test system: HEK293T cells expressing hTRPV3; assay: Hoechst 33342/propidium iodide double staining cell death assay; settings: inhibitor 20 μM added 1 h before Car 300 μM
Procedure: For cell death assay, HEK293T cells transfected with hTRPV3 were seeded in 6-well plates and randomly divided into different groups. TRPV3 and NF-κB inhibitors were added 1 h before the addition of Car. After administration of Car for 1 h, cell death was detected using Hoechst 33342/propidium iodide Double Stain Kit (Solarbio). After staining, cells were resuspended with PBS buffer. Five random view images in each group were taken under a microscope (Eclipse Ti, Nikon) and counted using ImageJ software (National Institutes of Health).

O=C(/C=C/c1ccc(O)c(O)c1)O[C@H](Cc1ccc(O)c(O)c1)C(=O)O [ROSA, rosmarinic acid]
inhibition at 50 µM (hTRPV4): 2 ± 7.3% | inhibition of TRPM8 currents (hTRPM8): 0.7 ± 6.7% | inhibition at 100 µM (TRPV3 T636A [1]): 14.7% | single-channel open probability, T636A mutant (TRPV3 T636A [2]): 0.67 | cell death ratio [3]: 17%
